{"source": "ChEMBL document CHEMBL5696443", "about": "(Clin Cancer Res, 2016)", "key": {"[1]": {"molecular_target": "CDK9/cyclin T1 (Homo sapiens) (UniProt O60563+P50750)", "test": "Inhibition of human CDK9/CyclinT1 at 1 uM using KTFCGTPEYLAPEVRREPRILSEEEQEMFRDFDYIADWC as substrate in presence of [gamma33P]-ATP by HotSpot assay relative to control", "type": "protein-complex assay"}, "[2]": {"molecular_target": "G protein-coupled receptor kinase 6 (Homo sapiens) (UniProt P43250)", "sequence (P43250 whole entry, looked up)": "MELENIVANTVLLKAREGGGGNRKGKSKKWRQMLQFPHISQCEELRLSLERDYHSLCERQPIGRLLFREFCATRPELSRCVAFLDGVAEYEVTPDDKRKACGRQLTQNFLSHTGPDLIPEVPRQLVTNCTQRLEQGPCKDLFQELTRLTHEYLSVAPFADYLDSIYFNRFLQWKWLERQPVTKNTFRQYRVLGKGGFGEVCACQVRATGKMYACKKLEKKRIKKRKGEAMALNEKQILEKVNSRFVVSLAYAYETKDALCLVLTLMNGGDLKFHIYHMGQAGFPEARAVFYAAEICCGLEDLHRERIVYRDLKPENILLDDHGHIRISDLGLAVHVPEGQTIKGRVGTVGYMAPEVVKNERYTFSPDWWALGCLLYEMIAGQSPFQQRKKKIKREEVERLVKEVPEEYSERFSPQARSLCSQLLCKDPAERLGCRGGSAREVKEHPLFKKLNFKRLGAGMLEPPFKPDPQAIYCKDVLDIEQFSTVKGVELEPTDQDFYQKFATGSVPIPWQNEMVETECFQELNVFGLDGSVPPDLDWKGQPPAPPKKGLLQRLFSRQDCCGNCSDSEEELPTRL", "test": "Inhibition of human GRK6 at 1 uM using casein as substrate in presence of [gamma33P]-ATP by HotSpot assay relative to control"}, "[3]": {"molecular_target": "cGMP-dependent protein kinase 2 (Homo sapiens) (UniProt Q13237)", "sequence (Q13237 whole entry)": "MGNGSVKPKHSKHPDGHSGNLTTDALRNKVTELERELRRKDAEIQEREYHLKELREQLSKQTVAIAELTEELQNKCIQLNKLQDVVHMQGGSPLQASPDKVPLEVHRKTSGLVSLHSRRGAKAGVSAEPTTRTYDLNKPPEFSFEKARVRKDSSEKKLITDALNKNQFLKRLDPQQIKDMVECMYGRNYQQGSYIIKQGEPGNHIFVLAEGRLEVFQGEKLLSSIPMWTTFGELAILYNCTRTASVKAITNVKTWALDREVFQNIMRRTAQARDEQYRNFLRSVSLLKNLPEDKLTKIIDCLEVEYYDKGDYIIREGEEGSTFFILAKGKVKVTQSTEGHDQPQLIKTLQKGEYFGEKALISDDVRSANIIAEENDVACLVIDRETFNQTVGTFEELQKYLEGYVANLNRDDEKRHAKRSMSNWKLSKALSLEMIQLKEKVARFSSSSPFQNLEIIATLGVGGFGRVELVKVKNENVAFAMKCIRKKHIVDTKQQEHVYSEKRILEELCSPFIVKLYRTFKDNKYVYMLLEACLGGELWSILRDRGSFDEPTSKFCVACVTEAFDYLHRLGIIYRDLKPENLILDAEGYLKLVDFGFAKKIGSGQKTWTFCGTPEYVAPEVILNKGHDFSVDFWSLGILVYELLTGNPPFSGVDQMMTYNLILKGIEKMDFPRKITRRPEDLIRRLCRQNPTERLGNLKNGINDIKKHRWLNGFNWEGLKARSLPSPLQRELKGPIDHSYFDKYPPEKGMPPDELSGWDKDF", "test": "Inhibition of human PRKG2 at 1 uM using LRRASLG as substrate in presence of [gamma33P]-ATP by HotSpot assay relative to control"}, "[4]": {"molecular_target": "Casein kinase I isoform gamma-1 (Homo sapiens) (UniProt Q9HCP0)", "sequence (Q9HCP0 whole entry, looked up, canonical isoform)": "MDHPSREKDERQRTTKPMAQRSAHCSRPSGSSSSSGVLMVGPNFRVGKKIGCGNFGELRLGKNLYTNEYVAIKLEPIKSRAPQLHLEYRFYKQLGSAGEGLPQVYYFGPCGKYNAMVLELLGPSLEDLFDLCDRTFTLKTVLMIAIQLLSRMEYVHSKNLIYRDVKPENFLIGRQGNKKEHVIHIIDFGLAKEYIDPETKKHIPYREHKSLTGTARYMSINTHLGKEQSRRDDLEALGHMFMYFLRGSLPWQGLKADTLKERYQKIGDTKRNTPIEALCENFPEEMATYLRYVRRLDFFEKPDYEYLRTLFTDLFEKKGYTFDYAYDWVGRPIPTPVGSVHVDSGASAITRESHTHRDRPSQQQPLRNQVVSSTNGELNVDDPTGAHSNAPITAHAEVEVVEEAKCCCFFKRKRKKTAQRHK", "test": "Inhibition of human CSNK1G1 at 1 uM using KRRRAL[pS]VASLPGL as substrate in presence of [gamma33P]-ATP by HotSpot assay relative to control"}, "Mus musculus": {"system": "Mus musculus", "test": "In vivo inhibition of ALK signaling in SCID Beige mouse xenografted with ALK positive human KARPAS-299 cells assessed as reduction in phosphorylated ALK level at 10 to 50 mg/kg, po administered as single dose and measured at 6 to 24 hrs by immunoblot analysis", "type": "functional, organism-based", "conditions": "dose 10-50 mg/kg, time 6-24 hrs"}, "[5]": {"system": "EML4-ALK (Homo sapiens), Q9UM73+Q9HC35 [V1180L]", "conditions": "BaF3, dose 500.0 nmol/L, time 3-5 weeks"}, "[6]": {"molecular_target": "Serine/threonine-protein kinase WNK3 (Homo sapiens) (UniProt Q9BYP7)", "sequence (Q9BYP7 whole entry)": "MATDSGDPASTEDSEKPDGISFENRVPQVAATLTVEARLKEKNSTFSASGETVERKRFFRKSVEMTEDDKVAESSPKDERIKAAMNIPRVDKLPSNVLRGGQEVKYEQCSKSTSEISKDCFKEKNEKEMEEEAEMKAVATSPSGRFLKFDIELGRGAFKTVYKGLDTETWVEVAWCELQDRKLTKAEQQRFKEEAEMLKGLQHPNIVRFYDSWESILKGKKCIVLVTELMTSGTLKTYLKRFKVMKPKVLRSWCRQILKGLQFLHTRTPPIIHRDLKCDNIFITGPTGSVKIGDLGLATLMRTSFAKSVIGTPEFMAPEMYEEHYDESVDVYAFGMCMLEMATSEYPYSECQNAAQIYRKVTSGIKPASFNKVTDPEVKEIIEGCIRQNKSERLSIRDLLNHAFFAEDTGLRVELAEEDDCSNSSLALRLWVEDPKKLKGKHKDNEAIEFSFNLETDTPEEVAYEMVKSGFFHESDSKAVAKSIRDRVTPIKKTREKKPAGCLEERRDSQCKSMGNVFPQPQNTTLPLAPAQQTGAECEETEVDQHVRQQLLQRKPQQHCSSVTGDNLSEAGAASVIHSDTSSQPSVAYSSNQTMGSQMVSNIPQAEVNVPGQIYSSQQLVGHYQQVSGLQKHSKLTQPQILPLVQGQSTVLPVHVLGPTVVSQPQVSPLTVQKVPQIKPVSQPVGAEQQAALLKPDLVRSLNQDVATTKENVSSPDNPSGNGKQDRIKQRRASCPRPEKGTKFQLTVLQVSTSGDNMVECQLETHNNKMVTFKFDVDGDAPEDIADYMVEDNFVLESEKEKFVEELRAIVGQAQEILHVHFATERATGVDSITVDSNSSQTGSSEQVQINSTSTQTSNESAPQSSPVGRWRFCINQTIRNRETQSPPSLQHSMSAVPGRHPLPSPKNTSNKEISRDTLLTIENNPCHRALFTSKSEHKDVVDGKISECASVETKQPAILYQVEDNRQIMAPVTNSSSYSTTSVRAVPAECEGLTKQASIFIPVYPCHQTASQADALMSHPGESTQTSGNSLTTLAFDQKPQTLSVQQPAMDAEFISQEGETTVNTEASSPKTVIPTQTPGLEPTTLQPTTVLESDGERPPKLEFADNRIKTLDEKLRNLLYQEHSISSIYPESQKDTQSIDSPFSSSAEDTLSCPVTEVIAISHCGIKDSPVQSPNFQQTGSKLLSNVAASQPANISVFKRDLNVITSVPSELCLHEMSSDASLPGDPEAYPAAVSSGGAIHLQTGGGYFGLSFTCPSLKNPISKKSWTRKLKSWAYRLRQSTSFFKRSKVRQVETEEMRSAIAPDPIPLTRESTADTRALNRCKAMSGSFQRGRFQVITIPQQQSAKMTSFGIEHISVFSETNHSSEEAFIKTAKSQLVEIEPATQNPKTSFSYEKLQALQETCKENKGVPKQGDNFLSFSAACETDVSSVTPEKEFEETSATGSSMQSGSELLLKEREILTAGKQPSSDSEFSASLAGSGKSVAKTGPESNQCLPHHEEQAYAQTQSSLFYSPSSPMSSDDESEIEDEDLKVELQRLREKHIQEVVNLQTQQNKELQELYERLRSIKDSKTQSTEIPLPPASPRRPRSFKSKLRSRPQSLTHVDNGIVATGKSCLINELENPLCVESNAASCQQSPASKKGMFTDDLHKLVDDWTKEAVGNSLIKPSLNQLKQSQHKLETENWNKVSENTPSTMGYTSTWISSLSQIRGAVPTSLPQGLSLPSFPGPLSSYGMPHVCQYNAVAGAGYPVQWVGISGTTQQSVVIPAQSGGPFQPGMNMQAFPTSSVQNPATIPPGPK", "test": "Inhibition of human WNK3 at 1 uM using MBP as substrate in presence of [gamma33P]-ATP by HotSpot assay relative to control"}, "[7]": {"molecular_target": "Mitogen-activated protein kinase 9 (Homo sapiens) (UniProt P45984)", "sequence (P45984 whole entry, looked up)": "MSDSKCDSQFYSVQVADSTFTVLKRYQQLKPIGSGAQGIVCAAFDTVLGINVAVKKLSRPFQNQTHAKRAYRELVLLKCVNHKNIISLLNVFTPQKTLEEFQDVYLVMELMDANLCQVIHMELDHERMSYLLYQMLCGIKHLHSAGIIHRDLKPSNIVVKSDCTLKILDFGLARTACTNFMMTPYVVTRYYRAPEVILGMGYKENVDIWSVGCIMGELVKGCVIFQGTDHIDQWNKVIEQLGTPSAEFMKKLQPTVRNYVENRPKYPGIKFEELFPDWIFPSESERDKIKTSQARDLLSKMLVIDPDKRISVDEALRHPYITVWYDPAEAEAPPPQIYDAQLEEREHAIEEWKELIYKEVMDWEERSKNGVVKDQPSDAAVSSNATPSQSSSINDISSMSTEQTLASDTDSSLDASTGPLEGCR", "test": "Inhibition of human JNK2a2 at 1 uM using ATF2 as substrate in presence of [gamma33P]-ATP by HotSpot assay relative to control"}, "[8]": {"molecular_target": "Muscle, skeletal receptor tyrosine-protein kinase (Homo sapiens) (UniProt O15146)", "test": "Inhibition of human MUSK at 1 uM using MBP as substrate in presence of [gamma33P]-ATP by HotSpot assay relative to control"}, "[9]": {"molecular_target": "Serine/threonine-protein kinase PAK 4 (Homo sapiens) (UniProt O96013)", "test": "Inhibition of human PAK4 at 1 uM using RRRLSFAEPG as substrate in presence of [gamma33P]-ATP by HotSpot assay relative to control"}, "[10]": {"molecular_target": "Inhibitor of nuclear factor kappa-B kinase subunit alpha (Homo sapiens) (UniProt O15111)", "test": "Inhibition of human CHUK at 1 uM using KKKKERLLDDRHDSGLDSMKDEE as substrate in presence of [gamma33P]-ATP by HotSpot assay relative to control"}, "DEL": {"system": "DEL", "conditions": "time 72 hrs"}, "[11]": {"molecular_target": "Calcium/calmodulin-dependent protein kinase kinase 1 (Homo sapiens) (UniProt Q8N5S9)", "test": "Inhibition of human CAMKK1 at 1 uM using MBP as substrate in presence of [gamma33P]-ATP by HotSpot assay relative to control"}, "[12]": {"molecular_target": "Platelet-derived growth factor receptor alpha (Homo sapiens) (UniProt P16234)", "sequence (P16234 whole entry)": "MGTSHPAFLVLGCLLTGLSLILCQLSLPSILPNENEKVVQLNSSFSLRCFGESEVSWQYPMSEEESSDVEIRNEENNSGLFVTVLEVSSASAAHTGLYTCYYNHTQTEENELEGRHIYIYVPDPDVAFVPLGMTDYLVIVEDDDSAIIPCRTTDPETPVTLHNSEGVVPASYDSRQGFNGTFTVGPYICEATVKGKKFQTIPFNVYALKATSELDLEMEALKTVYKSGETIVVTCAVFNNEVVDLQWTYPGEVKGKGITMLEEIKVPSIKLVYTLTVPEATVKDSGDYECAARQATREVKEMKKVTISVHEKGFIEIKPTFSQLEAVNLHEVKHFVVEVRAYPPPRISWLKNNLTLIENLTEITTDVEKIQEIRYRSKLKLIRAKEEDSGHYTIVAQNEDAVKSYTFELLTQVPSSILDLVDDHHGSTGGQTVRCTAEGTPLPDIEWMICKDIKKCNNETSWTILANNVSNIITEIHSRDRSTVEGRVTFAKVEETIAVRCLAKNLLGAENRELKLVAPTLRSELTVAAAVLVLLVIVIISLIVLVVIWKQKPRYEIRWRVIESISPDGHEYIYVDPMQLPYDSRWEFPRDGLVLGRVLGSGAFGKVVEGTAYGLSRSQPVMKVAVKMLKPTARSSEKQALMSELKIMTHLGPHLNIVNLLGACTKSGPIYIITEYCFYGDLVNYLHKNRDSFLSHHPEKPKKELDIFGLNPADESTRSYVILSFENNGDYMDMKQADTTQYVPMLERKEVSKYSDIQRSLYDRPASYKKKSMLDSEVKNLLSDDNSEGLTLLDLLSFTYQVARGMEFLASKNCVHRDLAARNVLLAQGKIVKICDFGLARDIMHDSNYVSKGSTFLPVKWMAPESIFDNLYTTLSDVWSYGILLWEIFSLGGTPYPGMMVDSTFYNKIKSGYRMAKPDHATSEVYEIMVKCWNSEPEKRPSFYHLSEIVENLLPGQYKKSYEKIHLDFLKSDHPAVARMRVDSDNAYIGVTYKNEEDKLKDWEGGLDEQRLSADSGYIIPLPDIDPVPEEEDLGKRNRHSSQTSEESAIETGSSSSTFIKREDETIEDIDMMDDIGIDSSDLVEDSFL", "test": "Inhibition of human PDGFRalpha at 1 uM using poly (Glu, Tyr)4:1 as substrate in presence of [gamma33P]-ATP by HotSpot assay relative to control"}, "[13]": {"molecular_target": "Serine/threonine-protein kinase PAK 5 (Homo sapiens) (UniProt Q9P286)", "test": "Inhibition of human PAK5 at 1 uM using RRRLSFAEPG as substrate in presence of [gamma33P]-ATP by HotSpot assay relative to control"}}, "note": "The source made the active and inactive calls. The rule behind the calls is not given here."}
{"compound": "COc1cc(N2CCC(N3CCN(C)CC3)CC2)ccc1Nc1ncc(Cl)c(Nc2ccccc2P(C)(C)=O)n1", "note": "[BRIGATINIB]", "values": [{"measurement": "inhibition", "setting": "[1]", "value": "< 90", "unit": "%"}, {"measurement": "inhibition", "setting": "[2]", "value": "< 90", "unit": "%"}, {"measurement": "inhibition", "setting": "[3]", "value": "< 90", "unit": "%"}, {"measurement": "inhibition", "setting": "[4]", "value": "< 90", "unit": "%"}, {"measurement": "Activity", "setting": "Mus musculus", "value": "Active"}, {"measurement": "inhibition", "setting": "[5]", "value": "Active"}, {"measurement": "inhibition", "setting": "[6]", "value": "< 90", "unit": "%"}, {"measurement": "inhibition", "setting": "[7]", "value": "< 90", "unit": "%"}, {"measurement": "inhibition", "setting": "[8]", "value": "< 90", "unit": "%"}, {"measurement": "inhibition", "setting": "[9]", "value": "< 90", "unit": "%"}, {"measurement": "inhibition", "setting": "[10]", "value": "< 90", "unit": "%"}, {"measurement": "GI50", "setting": "DEL", "value": 31, "unit": "nM"}, {"measurement": "inhibition", "setting": "[11]", "value": "< 90", "unit": "%"}, {"measurement": "inhibition", "setting": "[12]", "value": "< 90", "unit": "%"}, {"measurement": "inhibition", "setting": "[13]", "value": "< 90", "unit": "%"}]}
